According to US20110302823A1, “ATTRACTANT COMPOSITIONS FOR WEEVILS OF THE GENUS OT[…] USES THEREOF” (Stichting Dienst Landbouwkundig Onderzoek, priority 2010, published 2011):

Key:
[1] = tested on: O. sulcatus antenna; assay: GC-EAD antennal response to plant headspace volatiles; design: species or system Otiorhynchus sulcatus; conditions: headspace of E. fortunei 'Dart's Blanket' plants and paraffin oil extract; not quantified
Protocol: (§1) Volatiles were collected from a bio-active extract of Euonymus fortunei ‘Dart's Blanket’ in paraffin oil and from cuttings of mechanically damaged and O. sulcatus-damaged E. fortunei ‘Dart's Blanket’. The antennal response to these plant odours by O. sulcatus were measured by gas chromatography coupled with electroantennogram detection (GC-EAD). Compounds giving an electrophysiological response were tentatively identified by gas chromatography coupled with mass-spectrometry (GC-MS). […] A selection of plant volatiles that gave an electrophysiological reaction on the antenna were tested as single compounds and in several mixtures of two or more compounds on bioactivity using the olfactometer developed specifically to study vine weevil behaviour (see e.g., Van Tol et al., (2002) Physiological Entomology 27, 213-222). A small selection of compounds bioactive in the lab was tested under field conditions in strawberry.
A filtered 10-ml extract of E. fortunei ‘Dart's Blanket’ in paraffin oil (Merck, Uvasol) and four O. sulcatus-damaged and four mechanically damaged 20-cm long cuttings of field-grown E. fortunei ‘Dart's Blanket’ were used for headspace collection. The extract was prepared by crushing 30 g of fresh leaves from the top 15 cm part of stems with 50 ml of paraffin oil on ice. The extract was crushed for approximately 20 min followed by immediately filtering through Whatman No. 90 (diameter 15 cm) paper filter. The filtered Euonymus extract was stored cool until use. Cuttings of Euonymus were mechanically damaged with a scissor by four incisions per leaf three hours prior to headspace collection.
The O. sulcatus-damaged Euonymus cuttings were prepared by offering 10 vine weevils 16 hrs prior to headspace collecting the cuttings. Weevils were removed and cuttings washed with deionized water prior to placing in a fresh 100 ml flask with water for headspace collection. For three days the Euonymus cuttings or a daily refreshed 10-ml paraffin oil extract of Euonymus in an open Petri-dish were placed under a glass bell jar (5 l) in a growth chamber at 20° C. and under long day (L:D=16:8 hr) light conditions. Air was purified by passage through a charcoal filter and drawn at 0.2 l min^−1 through the jar. Volatiles were entrained for a total of 69 hrs. For the collecting of volatiles, Gerstel thermodesorption tubes, filled with 80 mg Tenax TA 20/35 mesh (Grace Alltech), were used. Before use, these tubes were cleaned by rinsing them with 10 ml hexane and, subsequently, flushing them for one hour at 280° C. with 20 ml min purified nitrogen. Each Tenax tube was refreshed after approximately 8 hrs. The volatiles trapped on the Tenax were washed off with 15 ml hexane. […]

[2] = tested on: O. sulcatus; assay: Field experiment: attraction of weevils to odor dispensers in a strawberry field; type: in vivo, Otiorhynchus sulcatus; conditions: for number of weevils per replicate (O. sulcatus caught): total of whole season, back-transformed mean, 0.4 ml of each compound per dispenser, control 4.3
Protocol: A selection of single plant compounds (A=(Z)-2-pentenol and B=(E)-2-hexenol) and combinations of plant compounds (C=A+B in ratio 1:1, D=A+methyl eugenol in ratio 1:1, and E=A+B+methyl eugenol in ratio 1:1:1) were tested in a strawberry field (Fragaria×ananassa ‘Tillamook’) for attraction of O. sulcatus. Choice of compounds and mixtures were based on identification of EAD-active compounds from headspace of weevil-damaged E. fortunei ‘Dart's Blanket’ plants and paraffin oil extract of the same Euonymus plant species combined with bioassay results with the EAD-active compounds alone and in several mixtures (Van Tol, unpublished). The compound (Z)-2-pentenol (purity 95%) was obtained from Bedoukian (Danbury, Conn., USA), (E)-2-hexenol (purity >96%) from Acros (Geel, Belgium) and methyl eugenol (purity >98%) from Sigma-Aldrich (St. Louis, Mo., USA). All chemicals were used without further purification. Single compounds and mixtures were introduced in dispensers prior to use and sealed. In each dispenser 0.4 ml of each compound was present.
Plant volatile dispensers were made of 1.5 ml LDPE Pasteur pipettes (Labo Scientific, Ede, the Netherlands). The compounds to be tested were introduced into the pipette, the tip of which was then sealed by heat. Prior to use, the tip of the pipette was cut off at 1 cm above the reservoir portion. […] The dispenser is a simple and cheap existing design which enables a high release profile especially for larger quantities of plant volatiles. […]
(§2) Experiments were performed on a commercial strawberry field in Oregon (USA). […] Traps and dispensers were placed in the fields and monitored for weevils' presence between May and August 2009. […] Traps and plants surrounding each trap-dispenser combination were monitored for weevils weekly. […]

[3] = tested on: O. sulcatus; assay: Laboratory (olfactometer) and field tests of attraction; type: in vivo, Otiorhynchus sulcatus
Protocol: as §1
as §2, with “(USA). Five different treatments (A, B, C, D and E) and one control were tested in the field. The control consisted of an empty dispenser.” for “(USA).”

SMILES	antennal (EAD) response [1]	attraction of O. sulcatus in strawberry (in words) [2]	number of weevils per replicate (O. sulcatus caught) [2]	attractive to O. sulcatus in laboratory and field tests (in words) [3]
C=C/C=C(\C)CCC=C(C)C [DMNT]	EAD-positive			
CC/C=C\CO [Treatment A, (Z)-2-pentenol]	EAD-active	attractive	11.3	attractive
CCC/C=C/CO [Treatment B, (E)-2-hexenol]	EAD-active		4.3	
CC/C=C\CCO [(Z)-3-hexenol]	EAD-active			
